Test results published in patent publication US10613180B2, “Methods and systems of assessing tissue vascular permeability using non-labeled dextran” (priority 2014, dated 2020).

What was measured:
[1] = system: tumor; test: In vivo and ex vivo fluorescence imaging and immunohistochemistry with dextran-FITC; set-up: species or system mice; settings: after TNF-α
From the text: The changes of mean ROI CEST contrast of tumor and kidney are plotted on the right. […] The dextran can be also imaged by its conjugated fluorescein (FITC).

[2] = system: CT26 colon tumors; test: In vivo CEST MRI of 150 kD dextran uptake before and after TNF-α; set-up: species or system mice; settings: TNF-α 1 μg per mouse, one hour after 150 kD dextran
Experimental: For dextran of 150 kD, a slightly different protocol was used (FIG. 3a). […] One hour later, TNF-α (1 μg per mouse) was injected. The CEST MRI was acquired using a series of z spectral imaging acquisition (from −3 ppm to +3 ppm, step=0.2 ppm). Each acquisition took ˜16 minutes. For all the studies, a fat-suppressed RARE sequence with a continuous wave pre-saturation pulse B1=1.8 μT and 3 seconds (TR/TE=5000/5 ms, RARE factor=10)^2 was used. Data were processed using custom-written MATLAB scripts. After correcting for B0 inhomogeneity using the WASSR method, the in vivo CEST contrast was quantified by averaging the MTRasym=(S^−Δω−S^+Δω)/S0 from 0.8 to 1.2 ppm.^2

What does the source list for TNF-α?
dextran uptake in tumors by fluorescence imaging and immunohistochemistry [1]: marked increased dextran uptake in tumors; effect of TNF-α on dextran accumulation in tumor and kidney [2]: increased vascular permeability
